Reference: PubChem BioAssay AID248 (DTP/NCI, 2004)
Several values for one entry are separate records, joined by “and”; a condition that tells them apart may be missing. Equal entries are not always repeated. Toxic doses and inconclusive results are not listed. Rule as the data show it: active = T/C of 150% or more; inactive = T/C below 125%.

Test system: L1210 leukemia ip in BDF1 mice, survival T/C
Experiment: NCI In Vivo Anticancer Drug Screen. Data for tumor model L1210 Leukemia (intraperitoneal) in B6D2F1 (BDF1) mice
Settings: endpoint: mean survival time, higher = longer survival
In short: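 Transplanted-tumor mice were given test agent; controls received vehicle only. Survival readings from the two groups were divided (treated over control).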

[1] = dose: 100.0 mg/kg/injection, schedule: Q01DX001 (ip), vehicle: Klucel (hydroxypropylcellulose) (HPC)
[2] = dose: 200.0 mg/kg/injection, schedule: Q01DX001 (ip), vehicle: Klucel (hydroxypropylcellulose) (HPC)
[3] = dose: 100.0 mg/kg/injection, schedule: Q04DX003 (ip), vehicle: saline with Tween-80
[4] = dose: 200.0 mg/kg/injection, schedule: Q04DX003 (ip), vehicle: saline with Tween-80
[5] = dose: 400.0 mg/kg/injection, schedule: Q04DX003 (ip), vehicle: saline with Tween-80
[6] = dose: 100.0 mg/kg/injection, schedule: Q01DX001 (ip), vehicle: saline
[7] = dose: 200.0 mg/kg/injection, schedule: Q01DX001 (ip), vehicle: saline
[8] = dose: 400.0 mg/kg/injection, schedule: Q01DX001 (ip), vehicle: saline
[9] = dose: 100.0 mg/kg/injection, schedule: Q01DX001 (ip), vehicle: saline with Tween-80
[10] = dose: 200.0 mg/kg/injection, schedule: Q01DX001 (ip), vehicle: saline with Tween-80
[11] = dose: 100.0 mg/kg/injection, schedule: Q04DX002 (ip), vehicle: Klucel (hydroxypropylcellulose) (HPC)
[12] = dose: 200.0 mg/kg/injection, schedule: Q04DX002 (ip), vehicle: Klucel (hydroxypropylcellulose) (HPC)
[13] = dose: 400.0 mg/kg/injection, schedule: Q04DX002 (ip), vehicle: Klucel (hydroxypropylcellulose) (HPC)

Measured: T/C

CCCCCNc1ccnc(=O)[nH]1
inactive: dose: 50.0 mg/kg/injection, schedule: Q01DX001 (ip), vehicle: Klucel (hydroxypropylcellulose) (HPC) 99 % of control | [1] 94 % of control | [2] 96 % of control

O=S1(=O)CCCCC1Cl (stereo not given)
inactive: dose: 38.0 mg/kg/injection, schedule: Q01DX009 (ip), vehicle: other 96 % of control | dose: 75.0 mg/kg/injection, schedule: Q01DX001 (ip), vehicle: other 100 % of control | dose: 75.0 mg/kg/injection, schedule: Q01DX009 (ip), vehicle: other 89 % of control | dose: 75.0 mg/kg/injection, schedule: Q04DX003 (ip), vehicle: other 98 % of control | dose: 150.0 mg/kg/injection, schedule: Q01DX001 (ip), vehicle: other 100 % of control | dose: 150.0 mg/kg/injection, schedule: Q01DX009 (ip), vehicle: other 91 % of control | dose: 150.0 mg/kg/injection, schedule: Q04DX003 (ip), vehicle: other 98 % of control | dose: 300.0 mg/kg/injection, schedule: Q01DX001 (ip), vehicle: other 103 % of control

Cn1ccc(=O)c2cc([N+](=O)[O-])ccc21
inactive: dose: 25.0 mg/kg/injection, schedule: Q01DX009 (ip), vehicle: water 90 % of control | dose: 50.0 mg/kg/injection, schedule: Q01DX009 (ip), vehicle: water 93 % of control | dose: 100.0 mg/kg/injection, schedule: Q01DX009 (ip), vehicle: water 86 % of control | dose: 100.0 mg/kg/injection, schedule: Q04DX002 (ip), vehicle: saline with Tween-80 104 % of control and 106 % of control | [3] 115 % of control and 90 % of control | dose: 200.0 mg/kg/injection, schedule: Q01DX009 (ip), vehicle: water 95 % of control | dose: 200.0 mg/kg/injection, schedule: Q04DX002 (ip), vehicle: saline with Tween-80 109 % of control and 87 % of control | [4] 97 % of control and 102 % of control | dose: 400.0 mg/kg/injection, schedule: Q04DX002 (ip), vehicle: saline with Tween-80 87 % of control and 88 % of control | [5] 88 % of control

CCOC(=O)c1cc(C(=O)O)[nH]c(=O)c1C#N
inactive: [3] 97 % of control | [5] 95 % of control

Cc1nc2c(=O)[nH]c(=O)[nH]c2[nH]c1=O
inactive: dose: 16.0 mg/kg/injection, schedule: Q01DX Z (ip), vehicle: methylcellulose (MC) 89 % of control | dose: 31.0 mg/kg/injection, schedule: Q01DX Z (ip), vehicle: methylcellulose (MC) 95 % of control | dose: 62.0 mg/kg/injection, schedule: Q01DX Z (ip), vehicle: methylcellulose (MC) 93 % of control | dose: 100.0 mg/kg/injection, schedule: Q01DX001 (ip), vehicle: other 96 % of control | dose: 100.0 mg/kg/injection, schedule: Q04DX003 (ip), vehicle: other 100 % of control | dose: 125.0 mg/kg/injection, schedule: Q01DX Z (ip), vehicle: methylcellulose (MC) 101 % of control | dose: 200.0 mg/kg/injection, schedule: Q01DX001 (ip), vehicle: other 102 % of control | dose: 200.0 mg/kg/injection, schedule: Q04DX003 (ip), vehicle: other 111 % of control | dose: 400.0 mg/kg/injection, schedule: Q01DX001 (ip), vehicle: other 102 % of control | dose: 400.0 mg/kg/injection, schedule: Q04DX003 (ip), vehicle: other 107 % of control

O=C(Nc1ccccc1)Oc1cccnc1
inactive: [1] 98 % of control | [2] 100 % of control | dose: 400.0 mg/kg/injection, schedule: Q01DX001 (ip), vehicle: Klucel (hydroxypropylcellulose) (HPC) 98 % of control

CCCCCCCC1CCCCC1
inactive: dose: 50.0 mg/kg/injection, schedule: Q01DX001 (ip), vehicle: saline 101 % of control | [6] 98 % of control | [7] 101 % of control | [8] 98 % of control

O=C(O)CCCCCN1C(=O)c2cccc([N+](=O)[O-])c2C1=O
inactive: [9] 110 % of control | [10] 109 % of control

C/C(=C/C(=O)O)c1cc2ccccc2n1C
inactive: [3] 100 % of control | [4] 92 % of control | [5] 96 % of control

C[C@]12CC[C@@H]3c4ccc(O)cc4CC[C@H]3[C@@H]1CC[C@@H]2OC(=O)CCC1CCCC1
inactive: dose: 60.0 mg/kg/injection, schedule: Q04DX003 (sc), vehicle: steriod suspending solution 104 % of control | dose: 100.0 mg/kg/injection, schedule: Q01DX001 (sc), vehicle: steriod suspending solution 107 % of control | dose: 120.0 mg/kg/injection, schedule: Q04DX003 (sc), vehicle: steriod suspending solution 104 % of control | dose: 200.0 mg/kg/injection, schedule: Q01DX001 (sc), vehicle: steriod suspending solution 113 % of control | dose: 240.0 mg/kg/injection, schedule: Q04DX003 (sc), vehicle: steriod suspending solution 100 % of control | dose: 400.0 mg/kg/injection, schedule: Q01DX001 (sc), vehicle: steriod suspending solution 107 % of control

COc1ccc(C)cc1NC(=O)OCCOc1ccc(NC(C)=O)cc1
inactive: dose: 50.0 mg/kg/injection, schedule: Q01DX009 (ip), vehicle: saline with Tween-80 98 % of control | dose: 100.0 mg/kg/injection, schedule: Q01DX009 (ip), vehicle: saline with Tween-80 95 % of control | dose: 200.0 mg/kg/injection, schedule: Q01DX009 (ip), vehicle: saline with Tween-80 95 % of control

Cc1ccc(C(O)c2cnc(C)n2Cc2ccccc2)cc1 (stereo not given)
inactive: dose: 100.0 mg/kg/injection, schedule: Q01DX009 (ip), vehicle: carboxymethylcellulose (CMC) 96 % of control | [11] 94 % of control | dose: 100.0 mg/kg/injection, schedule: Q04DX002 (ip), vehicle: carboxymethylcellulose (CMC) 94 % of control and 112 % of control | dose: 100.0 mg/kg/injection, schedule: Q04DX003 (ip), vehicle: carboxymethylcellulose (CMC) 107 % of control | dose: 200.0 mg/kg/injection, schedule: Q01DX009 (ip), vehicle: carboxymethylcellulose (CMC) 100 % of control and 107 % of control | [12] 109 % of control | dose: 200.0 mg/kg/injection, schedule: Q04DX002 (ip), vehicle: carboxymethylcellulose (CMC) 94 % of control and 98 % of control | dose: 200.0 mg/kg/injection, schedule: Q04DX003 (ip), vehicle: carboxymethylcellulose (CMC) 92 % of control | dose: 400.0 mg/kg/injection, schedule: Q01DX009 (ip), vehicle: carboxymethylcellulose (CMC) 96 % of control and 86 % of control | [13] 88 % of control | dose: 400.0 mg/kg/injection, schedule: Q04DX002 (ip), vehicle: carboxymethylcellulose (CMC) 94 % of control and 95 % of control | dose: 400.0 mg/kg/injection, schedule: Q04DX003 (ip), vehicle: carboxymethylcellulose (CMC) 96 % of control

CN=C(c1ccc(NC(=O)c2cc(C(=O)Nc3ccc(C(=NC)N(C)C)cc3)cc([N+](=O)[O-])c2)cc1)N(C)C
inactive: dose: 1.88 mg/kg/injection, schedule: Q01DX Z (ip), vehicle: saline 100 % of control | dose: 3.75 mg/kg/injection, schedule: Q01DX Z (ip), vehicle: saline 100 % of control | dose: 7.5 mg/kg/injection, schedule: Q01DX Z (ip), vehicle: saline 98 % of control

CC(=O)NC1C(OC(C)=O)OC(COC(C)=O)C(OC(C)=O)C1OC(C)=O (stereo not given)
inactive: [9] 100 % of control | [10] 103 % of control | dose: 400.0 mg/kg/injection, schedule: Q01DX001 (ip), vehicle: saline with Tween-80 103 % of control

O/N=C/c1c(O)cccc1Cl
inactive: dose: 75.0 mg/kg/injection, schedule: Q01DX001 (ip), vehicle: acetone 102 % of control | dose: 150.0 mg/kg/injection, schedule: Q01DX001 (ip), vehicle: acetone 91 % of control

O=c1[nH]c(=O)c2[nH]c(Br)c(Br)c2[nH]1
inactive: [6] 93 % of control | [7] 96 % of control | [8] 93 % of control

COc1ccc(-n2cccc2/C=N\O)cc1OC
inactive: [11] 89 % of control | [12] 100 % of control | [13] 96 % of control
